The target of the assay is T1, 3MST in cell lysate of 3MST-overexpressing HEK293 cells (Mus musculus, UniProt Q99J99).
T1 construct: expressed in transfected cells; host or cells: HEK293 (transient, 3MST/pCI)
T1 sequence (Q99J99 1-297): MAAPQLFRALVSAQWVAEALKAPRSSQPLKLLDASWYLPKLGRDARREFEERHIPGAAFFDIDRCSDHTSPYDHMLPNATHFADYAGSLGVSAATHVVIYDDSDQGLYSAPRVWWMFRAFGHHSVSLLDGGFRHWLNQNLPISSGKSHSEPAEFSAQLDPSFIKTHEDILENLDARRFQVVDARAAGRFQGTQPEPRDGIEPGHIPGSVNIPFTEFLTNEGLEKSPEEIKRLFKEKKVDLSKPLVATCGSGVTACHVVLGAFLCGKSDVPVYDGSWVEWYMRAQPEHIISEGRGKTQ
In words: Inhibitory activity in lysate of m3MST-overexpressing HEK293 cells by gas chromatography. The format is biochemical. The conditions noted are these: 10 μM compound, 100 μM 3MP, 100 μM DTT, 37 °C 15 min. The protocol:
Figure 2 Selectivity assessment of hit compounds for 3MST over other H2S/polysulfides-producing enzymes and rhodanese. (a) 3MST-Inhibitory activity of hit compounds at 10 and 100 μM in cell lysate of 3MST-expressing HEK293 cells. 100 μM 3MP and 100 μM DTT were added to the solution containing 0.1% DMSO as a cosolvent, and the mixture was incubated at 37 °C for 15 min. H2S production was measured by gas chromatography. All data are presented as the mean ± S.D. (100 μM: n = 3 or 4; 10 μM: n = 3). (b) Selectivity assessment of hit compounds at 100 μM towards CBS and CSE. Only DMSO was added to the control sample instead of DMSO solution containing hit compounds. H2S production was monitored by gas chromatography. All data are presented as the mean (n = 3). (c) Detection method for rhodanese activity (Sörbo method). (d) Selectivity assessment of hit compounds towards rhodanese. The results are mean ± S.D. (n = 4, three times). These values were determined based upon the absorbance of [Fe(SCN)3] at 460 nm (Sӧrbo method). […] (e) Fluorescence confocal microscopic images of live COS7 cells transfected with 3MST or an empty vector[9] as a control. […] F/F0 was calculated by dividing the fluorescence intensity of cells after addition of 500 μM 3MP (10 min) by that of cells before addition of 500 μM 3MP (Pre), then the mean F/F0 was determined from 5 cells. […]

The text below walks through data of PMC5228037, “Discovery and Mechanistic Characterization of Selective Inhibitors of H2S-producing Enzyme: 3-Mercaptopyruvate Sulfurtransferase (3MST) Targeting Active-site Cysteine Persulfide” (Scientific Reports, 2017).

Structures are written as SMILES.

With `NC(=O)c1ccsc1NC(=O)CSc1nc2ccccc2c(=O)[nH]1` [compound 1], the inhibition – broadly, the percentage by which the read-out fell short of the control – at 10 µM was 80 to 90%.

`Cc1cc(=O)[nH]c(SCC(=O)c2cccc3ccccc23)n1` [compound 3] came in with an inhibition at 10 µM of 80 to 90%.
